Experimental data: patent US20220160842A1, “METHOD OF TREATING INFECTIVE ENDOCARDITIS” (priority 2019, published 2022)
Values after ≈ are worked out from the molar mass of the structure shown. Marks after values point to notes of the source that are not given here.

Legend:
S. aureus (MRSA) = assay: MIC by broth microdilution; format: cell-based, Staphylococcus aureus; details: S. aureus (MRSA), N=74
Description: (§1) Minimal inhibitory concentrations (MICs) of exebacase against staphylococci were determined by broth microdilution (BMD) using a nonstandard antimicrobial susceptibility testing (AST) medium comprised of cation-adjusted Mueller Hinton broth (caMHB) supplemented with horse serum (Sigma Aldrich) and dithiothreitol (DTT; Sigma Aldrich) to final concentrations of 25% and 0.5 mM, respectively. This medium, referred to as caMHB-HSD, is approved for use in exebacase AST by the Clinical and Laboratory Standards Institute (CLSI) (CLSI. 2017, Jan. 16-17. AST Subcommittee Working Group Meetings and Plenary. AST Meeting Files & Resources, clsi.org/education/microbiology/ast/ast-meeting-files-resources/. Additional supplementation with 2.5% lysed red blood cells (Remel™, ThermoFisher) was included for analyses of streptococcal isolates, as recommended by CLSI. See CLSI, 2015. Methods for Dilution Antimicrobial Susceptibility Tests for Bacteria That Grow Aerobically, 10th Edition. Clinical and Laboratory Standards Institute, Wayne, Pa.
(§2) Daptomycin (Sigma Aldrich) and vancomycin hydrochloride (Sigma Aldrich) were tested following the reference BMD method for each. See CLSI. 2015. Methods for Dilution Antimicrobial Susceptibility Tests for Bacteria That Grow Aerobically, 10th Edition. Clinical and Laboratory Standards Institute, Wayne, Pa.

S. aureus (MSSA) = assay: MIC by broth microdilution; format: cell-based, Staphylococcus aureus; details: S. aureus (MSSA), N=73
Description: as §1, §2

S. lugdunensis = assay: MIC by broth microdilution; format: cell-based, Staphylococcus lugdunensis; details: S. lugdunensis, N=49
Description: as §1, §2

S. capitis = assay: MIC by broth microdilution; format: cell-based, Staphylococcus capitis; details: S. capitis, N=13
Description: as §1, §2

S. warneri = assay: MIC by broth microdilution; format: cell-based, Staphylococcus warneri; details: S. warneri, N=23
Description: as §1, §2

S. gordonii = assay: MIC by broth microdilution; format: cell-based, Streptococcus gordonii; details: S. gordonii (viridans), N=11
Description: as §1, §2

S. mitis = assay: MIC by broth microdilution; format: cell-based, Streptococcus mitis; details: S. mitis (viridans), N=18
Description: as §1, §2

S. mutans = assay: MIC by broth microdilution; format: cell-based, Streptococcus mutans; details: S. mutans (viridans), N=22
Description: as §1, §2

S. oralis = assay: MIC by broth microdilution; format: cell-based, Streptococcus oralis; details: S. oralis (viridans), N=15
Description: as §1, §2

S. salivarius = assay: MIC by broth microdilution; format: cell-based, Streptococcus salivarius; details: S. salivarius (viridans), N=12
Description: as §1, §2

S. sanguinis = assay: MIC by broth microdilution; format: cell-based, Streptococcus sanguinis; details: S. sanguinis (viridans), N=15
Description: as §1, §2

S. gallolyticus = assay: MIC by broth microdilution; format: cell-based, Streptococcus gallolyticus; details: S. gallolyticus (bovis), N=19
Description: as §1, §2

S. pyogenes = assay: MIC by broth microdilution; format: cell-based, Streptococcus pyogenes; details: S. pyogenes (group A), N=100
Description: as §1, §2

S. agalactiae = assay: MIC by broth microdilution; format: cell-based, Streptococcus agalactiae; details: S. agalactiae (group B), N=97
Description: as §1, §2

S. dysgalactiae = assay: MIC by broth microdilution; format: cell-based, Streptococcus dysgalactiae; details: S. dysgalactiae (group G), N=22
Description: as §1, §2

S. pneumoniae = assay: MIC by broth microdilution; format: cell-based, Streptococcus pneumoniae; details: S. pneumoniae, N=59
Description: as §1, §2

E. faecalis = assay: MIC by broth microdilution; format: cell-based, Enterococcus faecalis; details: E. faecalis (formerly group D), N=18
Description: as §1, §2

MRSA strain MW2 = assay: Left-sided catheter-induced IE model due to MRSA, CF-301 dose strategies plus DAP (Example 4); format: in vivo, rabbits
Description: Briefly, female New Zealand White rabbits (Harlan Laboratories; 2.3 to 2.5 kg body weight) underwent transcarotid-transaortic valve catheterization, and IE was induced by IV infection of ˜1-2×10^5 cfu of MW2 at 48 hours (h) after catheterization. […] See also FIG. 4.
On day 5, animals were sacrificed, and target tissues (cardiac vegetations, kidney and spleen) were removed and quantitatively cultured. Tissue MRSA counts are given as the mean log10 CFU/g of tissue±SD).
A two-tailed Student's t test was used to analyze the tissue MRSA counts between different groups. P values <0.05 were considered significant. No adjustment was made for all the P values reported in this study.

[1] = tested on: MRSA strain MW2 (CA-MRSA; USA400); details: cited from earlier work
[2] = Staphylococcus aureus, read-out: MIC50
[3] = Staphylococcus aureus, read-out: MIC90

MIC Range (S. aureus (MRSA)): 0.125 to 1 µg/mL
MIC50 (S. aureus (MRSA); [2]): 0.25 µg/mL (≈ 0.154 µM)
MIC90 (S. aureus (MRSA); [3]): 0.5 µg/mL (≈ 0.309 µM)
MIC Range (S. aureus (MSSA)): 0.125 to 0.5 µg/mL
MIC50 (S. aureus (MSSA); [2]): 0.25 µg/mL (≈ 0.154 µM)
MIC90 (S. aureus (MSSA); [3]): 0.25 µg/mL (≈ 0.154 µM)
MIC Range (S. lugdunensis): 0.25 to 2 µg/mL
MIC50 (S. lugdunensis; Staphylococcus lugdunensis, read-out: MIC50): 0.5 µg/mL (≈ 0.309 µM)
MIC90 (S. lugdunensis; Staphylococcus lugdunensis, read-out: MIC90): 1 µg/mL (≈ 0.617 µM)
MIC Range (S. capitis): 0.25 to 1 µg/mL
MIC50 (S. capitis; Staphylococcus capitis, read-out: MIC50): 0.5 µg/mL (≈ 0.309 µM)
MIC90 (S. capitis; Staphylococcus capitis, read-out: MIC90): 1 µg/mL (≈ 0.617 µM)
MIC Range (S. warneri): 0.25 to 2 µg/mL
MIC50 (S. warneri; Staphylococcus warneri, read-out: MIC50): 0.5 µg/mL (≈ 0.309 µM)
MIC90 (S. warneri; Staphylococcus warneri, read-out: MIC90): 2 µg/mL (≈ 1.23 µM)
MIC Range (S. gordonii): 0.25 to 1 µg/mL
MIC50 (S. gordonii; Streptococcus gordonii, read-out: MIC50): 0.5 µg/mL (≈ 0.309 µM)
MIC90 (S. gordonii; Streptococcus gordonii, read-out: MIC90): 0.5 µg/mL (≈ 0.309 µM)
MIC Range (S. mitis): 0.125 to 1 µg/mL
MIC50 (S. mitis; Streptococcus mitis, read-out: MIC50): 0.5 µg/mL (≈ 0.309 µM)
MIC90 (S. mitis; Streptococcus mitis, read-out: MIC90): 1 µg/mL (≈ 0.617 µM)
MIC Range (S. mutans): 0.25 to 8 µg/mL
MIC50 (S. mutans; Streptococcus mutans, read-out: MIC50): 0.5 µg/mL (≈ 0.309 µM)
MIC90 (S. mutans; Streptococcus mutans, read-out: MIC90): 1 µg/mL (≈ 0.617 µM)
MIC Range (S. oralis): 0.25 to 1 µg/mL
MIC50 (S. oralis; Streptococcus oralis, read-out: MIC50): 0.5 µg/mL (≈ 0.309 µM)
MIC90 (S. oralis; Streptococcus oralis, read-out: MIC90): 0.5 µg/mL (≈ 0.309 µM)
MIC Range (S. salivarius): 0.06 to 0.5 µg/mL
MIC50 (S. salivarius; Streptococcus salivarius, read-out: MIC50): 0.25 µg/mL (≈ 0.154 µM)
MIC90 (S. salivarius; Streptococcus salivarius, read-out: MIC90): 0.5 µg/mL (≈ 0.309 µM)
MIC Range (S. sanguinis): 0.06 to 1 µg/mL
MIC50 (S. sanguinis; Streptococcus sanguinis, read-out: MIC50): 0.25 µg/mL (≈ 0.154 µM)
MIC90 (S. sanguinis; Streptococcus sanguinis, read-out: MIC90): 1 µg/mL (≈ 0.617 µM)
MIC Range (S. gallolyticus): 0.06 to 0.5 µg/mL
MIC50 (S. gallolyticus; Streptococcus gallolyticus, read-out: MIC50): 0.125 µg/mL (≈ 0.0771 µM)
MIC90 (S. gallolyticus; Streptococcus gallolyticus, read-out: MIC90): 0.25 µg/mL (≈ 0.154 µM)
MIC Range (S. pyogenes): 0.016 to 0.06 µg/mL
MIC50 (S. pyogenes; Streptococcus pyogenes, read-out: MIC50): 0.03 µg/mL (≈ 0.0185 µM)
MIC90 (S. pyogenes; Streptococcus pyogenes, read-out: MIC90): 0.06 µg/mL (≈ 0.037 µM)
MIC Range (S. agalactiae): 0.125 to 0.25 µg/mL
MIC50 (S. agalactiae; Streptococcus agalactiae, read-out: MIC50): 0.125 µg/mL (≈ 0.0771 µM)
MIC90 (S. agalactiae; Streptococcus agalactiae, read-out: MIC90): 0.25 µg/mL (≈ 0.154 µM)
MIC Range (S. dysgalactiae): 0.06 to 0.5 µg/mL
MIC50 (S. dysgalactiae; Streptococcus dysgalactiae, read-out: MIC50): 0.125 µg/mL (≈ 0.0771 µM)
MIC90 (S. dysgalactiae; Streptococcus dysgalactiae, read-out: MIC90): 0.25 µg/mL (≈ 0.154 µM)
MIC Range (S. pneumoniae): 0.06 to 0.25 µg/mL
MIC50 (S. pneumoniae; Streptococcus pneumoniae, read-out: MIC50): 0.125 µg/mL (≈ 0.0771 µM)
MIC90 (S. pneumoniae; Streptococcus pneumoniae, read-out: MIC90): 0.5 µg/mL (≈ 0.309 µM)
MIC Range (E. faecalis): 0.25 to 0.5 µg/mL
MIC50 (E. faecalis; Enterococcus faecalis, read-out: MIC50): 0.5 µg/mL (≈ 0.309 µM)
MIC90 (E. faecalis; Enterococcus faecalis, read-out: MIC90): 0.5 µg/mL (≈ 0.309 µM)
Structure (SMILES): CCCCCCCCCC(=O)N[C@@H](Cc1c[nH]c2ccccc12)C(=O)N[C@H](CC(N)=O)C(=O)N[C@@H](CC(=O)O)C(=O)N[C@@H]1C(=O)NCC(=O)N[C@@H](CCCN)C(=O)N[C@@H](CC(=O)O)C(=O)N[C@H](C)C(=O)N[C@@H](CC(=O)O)C(=O)NCC(=O)N[C@H](CO)C(=O)N[C@@H]([C@H](C)CC(=O)O)C(=O)N[C@@H](CC(=O)c2ccccc2N)C(=O)O[C@@H]1C [DAP, Daptomycin]
MRSA density, Mean Log10 CFU/g tissue ± SD, Kidneys (MRSA strain MW2; DAP alone 4 mg/kg QD): 4.62 ± 1.16^a Log10 CFU/g tissue
MRSA density, Mean Log10 CFU/g tissue ± SD, Spleen (MRSA strain MW2; DAP alone 4 mg/kg QD): 4.04 ± 0.87^a Log10 CFU/g tissue
reduction in MRSA densities in all three target tissues vs vehicle controls (MRSA strain MW2; DAP alone 4 mg/kg iv QD x 4 day): 2-3 log10 cfu/g
MIC [1]: 0.5 µg/mL (≈ 0.309 µM)
